Measurements reported in US9113629B2, “4-amino-6-(4-substituted-phenyl)-picolinates and 6-amino-2-(4-substituted-phenyl)-pyrimidine-4-carboxylates and their use as herbicides” (DOW AGROSCIENCES LLC, priority 2013, dated 2015).
Where two headings read alike, the source gives them in different places.

What was measured:
[1] = test system: Key Broadleaf Weed and Crop Species; assay: Post-emergent Test II herbicidal activity (Table 5); format: in vivo; details: post-emergence, 336 h, 14 days after application; for pest or weed control at 70 g/ha: application rate 70 g ai/ha; for pest or weed control at 140 g/ha: application rate 140 g ai/ha
Outline: (§1)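 Scoring: visual, 0–100% injury at 14 d versus untreated. Treatment: overhead track spray, 187 L/ha, onto plants at the first–second true leaf stage. Growth: greenhouse, ~15 h light, 23–29 °C day, 22–28 °C night.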

[2] = test system: Key Grass and Sedge Weeds as well as Grass Crops; assay: Post-emergent Test II herbicidal activity (Table 6); format: in vivo; details: post-emergence, 336 h; for pest or weed control at 70 g/ha: 70 g ai/ha; for pest or weed control at 140 g/ha: 140 g ai/ha
Outline: as §1

[3] = ABUTH: velvetleaf (Abutilon theophrasti), read-out: Visual Growth Reduction (%) 14 Days After Application, ABUTH
[4] = AMARE: redroot pigweed (Amaranthus retroflexus), read-out: Visual Growth Reduction (%) 14 Days After Application, AMARE
[5] = BRSNN: oilseed-rape, canola (Brassica napus), read-out: Visual Growth Reduction (%) 14 Days After Application, BRSNN
[6] = CHEAL: lambsquarters (Chenopodium album), read-out: Visual Growth Reduction (%) 14 Days After Application, CHEAL
[7] = EPHHL: wild poinsettia (Euphorbia heterophylla), read-out: Visual Growth Reduction (%) 14 Days After Application, EPHHL
[8] = HELAN: sunflower (Helianthus annuus), read-out: Visual Growth Reduction (%) 14 Days After Application, HELAN
[9] = VIOTR: wild pansy (Viola tricolor), read-out: Visual Growth Reduction (%) 14 Days After Application, VIOTR
[10] = CYPES: yellow nutsedge (Cyperus esculentus), read-out: Visual Growth Reduction (%) 14 Days After Application, CYPES
[11] = DIGSA: crabgrass (Digitaria sanguinalis), read-out: Visual Growth Reduction (%) 14 Days After Application, DIGSA
[12] = ECHCG: barnyardgrass (Echinochloa crus-galli), read-out: Visual Growth Reduction (%) 14 Days After Application, ECHCG
[13] = ORYSA: rice (Oryza sativa), crop, read-out: Visual Growth Reduction (%) 14 Days After Application, ORYSA
[14] = SETFA: giant foxtail (Setaria faberi), read-out: Visual Growth Reduction (%) 14 Days After Application, SETFA
[15] = SORVU: grain sorghum (Sorghum vulgare), read-out: Visual Growth Reduction (%) 14 Days After Application, SORVU
[16] = TRZSS (wheat, Triticum aestivum), crop, read-out: Visual Growth Reduction (%) 14 Days After Application, TRZSS
[17] = ZEAMX: maize, corn (Zea mays), crop, read-out: Visual Growth Reduction (%) 14 Days After Application, ZEAMX

Row | Structure (SMILES) | pest or weed control at 70 g/ha [1, 3] | pest or weed control at 140 g/ha [1, 3] | pest or weed control at 70 g/ha [1, 4] | pest or weed control at 140 g/ha [1, 4] | pest or weed control at 70 g/ha [1, 5] | pest or weed control at 140 g/ha [1, 5] | pest or weed control at 70 g/ha [1, 6] | pest or weed control at 140 g/ha [1, 6] | pest or weed control at 70 g/ha [1, 7] | pest or weed control at 140 g/ha [1, 7] | pest or weed control at 70 g/ha [1, 8] | pest or weed control at 140 g/ha [1, 8] | pest or weed control at 70 g/ha [1, 9] | pest or weed control at 140 g/ha [1, 9] | pest or weed control at 70 g/ha [2, 10] | pest or weed control at 140 g/ha [2, 10] | pest or weed control at 70 g/ha [2, 11] | pest or weed control at 140 g/ha [2, 11] | pest or weed control at 70 g/ha [2, 12] | pest or weed control at 140 g/ha [2, 12] | further results
1 | Cc1ccc(-c2nc(C(=O)O)c(Cl)c(N)c2F)c(F)c1F [Compound 210] | 85 to 94% | 95 to 100% | 95 to 100% | 95 to 100% | 75 to 84% | 75 to 84% | 95 to 100% | 95 to 100% | 95 to 100% | 95 to 100% | 95 to 100% | 95 to 100% | 0 to 29% | 0 to 29% | 0 to 29% | 0 to 29% | 0 to 29% | 0 to 29% | 60 to 74% | 75 to 84% | pest or weed control at 70 g/ha [2, 13]: 0 to 29%; pest or weed control at 140 g/ha [2, 13]: 30 to 44%; pest or weed control at 70 g/ha [2, 14]: 75 to 84%; pest or weed control at 140 g/ha [2, 14]: 85 to 94%; pest or weed control at 70 g/ha [2, 15]: 0 to 29%; pest or weed control at 140 g/ha [2, 15]: 0 to 29%; pest or weed control at 70 g/ha [2, 16]: 0 to 29%; pest or weed control at 140 g/ha [2, 16]: 0 to 29%; pest or weed control at 70 g/ha [2, 17]: 0 to 29%; pest or weed control at 140 g/ha [2, 17]: 45 to 59%; melting point: 159 °C (dec.)
2 | COC(=O)c1nc(-c2ccc(C)c(F)c2F)c(F)c(N)c1Cl [Compound 211] | 95 to 100% | 95 to 100% | 95 to 100% | 95 to 100% | 60 to 74% | 85 to 94% | 95 to 100% | 95 to 100% | 95 to 100% | 95 to 100% | 95 to 100% | 95 to 100% | 0 to 29% | 0 to 29% | 45 to 59% | 60 to 74% | 0 to 29% | 0 to 29% | 45 to 59% | 85 to 94% | pest or weed control at 70 g/ha [2, 13]: 0 to 29%; pest or weed control at 140 g/ha [2, 13]: 0 to 29%; pest or weed control at 70 g/ha [2, 14]: 45 to 59%; pest or weed control at 140 g/ha [2, 14]: 60 to 74%; pest or weed control at 70 g/ha [2, 15]: 0 to 29%; pest or weed control at 140 g/ha [2, 15]: 30 to 44%; pest or weed control at 70 g/ha [2, 16]: 0 to 29%; pest or weed control at 140 g/ha [2, 16]: 0 to 29%; pest or weed control at 70 g/ha [2, 17]: 30 to 44%; pest or weed control at 140 g/ha [2, 17]: 45 to 59%; melting point: 167 to 168 °C
3 | Cc1ccc(-c2nc(C(=O)O)c(Cl)c(N)c2F)cc1F [Compound 212] | 95 to 100% | 95 to 100% | 95 to 100% | 95 to 100% | 95 to 100% | 95 to 100% | 95 to 100% | 95 to 100% | 95 to 100% | 95 to 100% | 95 to 100% | 95 to 100% | 0 to 29% | 0 to 29% | 0 to 29% | 30 to 44% | 0 to 29% | 30 to 44% | 75 to 84% | 85 to 94% | pest or weed control at 70 g/ha [2, 13]: 60 to 74%; pest or weed control at 140 g/ha [2, 13]: 60 to 74%; pest or weed control at 70 g/ha [2, 14]: 45 to 59%; pest or weed control at 140 g/ha [2, 14]: 75 to 84%; pest or weed control at 70 g/ha [2, 15]: 60 to 74%; pest or weed control at 140 g/ha [2, 15]: 75 to 84%; pest or weed control at 70 g/ha [2, 16]: 60 to 74%; pest or weed control at 140 g/ha [2, 16]: 60 to 74%; pest or weed control at 70 g/ha [2, 17]: 75 to 84%; pest or weed control at 140 g/ha [2, 17]: 85 to 94%; melting point: 145 to 146 °C
